Laboratory results published in ChEMBL document CHEMBL1201862, “PubChem BioAssay data set” (2004).
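Compound exposure: 48 hours, 5 concentrations, 96-well plates. GI50 = concentration required for 50% inhibition of growth.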 Activity calls are given as the source filed them. No stated cut-off is given here; in the data, active = GI50 up to about 1.1 µM and inactive = higher.

Key:
Experiment in all cases: NCI tumour cell line growth inhibition, 48 h
UO-31 = test system: UO-31
SF-268 = test system: SF-268
SNB-75 = test system: SNB-75
SF-295 = test system: SF-295
HOP-92 = test system: HOP-92
A498 = test system: A498
SW-620 = test system: SW-620
K562 = test system: K562
OVCAR-4 = test system: OVCAR-4
HOP-62 = test system: HOP-62
M14 = test system: M14
SN12C = test system: SN12C
LOX IMVI = test system: LOX IMVI
MOLT-4 = test system: MOLT-4
HCC 2998 = test system: HCC 2998
UACC-62 = test system: UACC-62
KM12 = test system: KM12
OVCAR-3 = test system: OVCAR-3

Measured: GI50

CCCCCCc1cc(C(=O)Nc2cccc(C(F)(F)F)c2)nc(N)n1
inactive: UO-31 > 100 µM | SF-268 > 100 µM | SNB-75 > 100 µM | SF-295 > 100 µM | HOP-92 > 100 µM | A498 > 100 µM | SW-620 > 100 µM | K562 > 100 µM | OVCAR-4 > 100 µM | HOP-62 63.4 µM | M14 > 100 µM | SN12C > 100 µM | LOX IMVI > 100 µM | MOLT-4 > 100 µM | HCC 2998 > 100 µM | UACC-62 > 100 µM | KM12 > 100 µM | OVCAR-3 > 100 µM

C/C(=N\O)c1sc(-n2nc(-c3ccccc3)cc2-c2ccccc2)nc1C
inactive: UO-31 10.6 µM | SF-268 12.1 µM | SNB-75 14.6 µM | SF-295 14 µM | HOP-92 > 10 µM | A498 25.4 µM | SW-620 13.1 µM | K562 12.6 µM | OVCAR-4 > 10 µM | HOP-62 12 µM | M14 13.2 µM | SN12C 6.79 µM | LOX IMVI 12.4 µM | MOLT-4 11.1 µM | HCC 2998 13.6 µM | UACC-62 11.6 µM | KM12 11.7 µM | OVCAR-3 16.3 µM

COc1c2c(cc3nc4ccccc4nc13)CCC(C(C)(C)O)C2 (stereo not given)
inactive: UO-31 83.2 µM | SF-268 > 100 µM | SNB-75 > 100 µM | SF-295 > 100 µM | HOP-92 76.2 µM | A498 > 100 µM | SW-620 > 100 µM | K562 73.8 µM | OVCAR-4 > 100 µM | HOP-62 > 100 µM | M14 > 100 µM | SN12C > 100 µM | LOX IMVI > 100 µM | MOLT-4 32.4 µM | HCC 2998 > 100 µM | UACC-62 > 100 µM | KM12 82.6 µM | OVCAR-3 49.5 µM

O=C1C(O)=C(CN(CCCl)CCCl)C(=O)c2ccccc21
inactive: UO-31 37.4 µM | SF-268 43.1 µM | SNB-75 73.6 µM | SF-295 70.3 µM | HOP-92 56.5 µM | A498 > 100 µM | SW-620 53.2 µM | K562 45.6 µM | OVCAR-4 > 100 µM | HOP-62 > 100 µM | M14 65.6 µM | SN12C 57.1 µM | MOLT-4 29.3 µM | HCC 2998 97.5 µM | UACC-62 39.6 µM | KM12 56.5 µM | OVCAR-3 45.1 µM

COC(=O)C1=C(c2ccc3c(c2)OCO3)OC(c2ccc3c(c2)OCO3)C1 (stereo not given)
inactive: UO-31 38.2 µM | SF-268 > 100 µM | SNB-75 > 100 µM | SF-295 71.9 µM | HOP-92 > 100 µM | A498 > 100 µM | SW-620 67 µM | K562 > 100 µM | OVCAR-4 > 100 µM | HOP-62 > 100 µM | M14 > 100 µM | SN12C > 100 µM | LOX IMVI 28.3 µM | MOLT-4 16.9 µM | HCC 2998 > 100 µM | UACC-62 > 100 µM | KM12 65.2 µM | OVCAR-3 > 100 µM

O=C1c2ccccc2NC1(c1ccccc1)c1c(-c2ccccc2)[nH]c2ccccc12 (stereo not given)
inactive: UO-31 7.82 µM | SNB-75 24.7 µM | SF-295 6.34 µM | HOP-92 5.35 µM | A498 32.8 µM | SW-620 51.9 µM | K562 8.32 µM | OVCAR-4 8.99 µM | HOP-62 67.5 µM | M14 22.1 µM | SN12C 14 µM | MOLT-4 2.91 µM | HCC 2998 36.6 µM | UACC-62 45.3 µM | KM12 10.5 µM | OVCAR-3 21.2 µM

C=C[C@]1(C)CCC2=C(CCC3C2(C)CCC[C@@]3(C)COC(C)=O)C1 (stereo not given in full)
inactive: UO-31 18.8 µM | SF-268 23.4 µM | SNB-75 18.1 µM | SF-295 17.8 µM | HOP-92 19.5 µM | A498 25.4 µM | SW-620 19.3 µM | K562 16.5 µM | OVCAR-4 19.7 µM | HOP-62 22.9 µM | M14 20.9 µM | SN12C 16.8 µM | LOX IMVI 18.6 µM | MOLT-4 14.7 µM | HCC 2998 17.7 µM | UACC-62 21.1 µM | KM12 19.3 µM | OVCAR-3 17.7 µM

Cn1c(=O)nc2n(-c3cc(C(F)(F)F)cc(C(F)(F)F)c3)c3ccccc3nc-2c1=O
inactive: UO-31 > 100 µM | SF-268 > 100 µM | SNB-75 18.8 µM | SF-295 52.1 µM | HOP-92 45.1 µM | A498 > 100 µM | SW-620 > 100 µM | K562 > 100 µM | OVCAR-4 40.3 µM | HOP-62 > 100 µM | M14 > 100 µM | SN12C > 100 µM | LOX IMVI > 100 µM | MOLT-4 > 100 µM | HCC 2998 > 100 µM | KM12 > 100 µM | OVCAR-3 64.7 µM
